The source of these data is ChEMBL document CHEMBL1133288, “Synthesis and antiviral evaluation of nucleic acid-based (NAB) libraries” (Bioorg Med Chem Lett, 2000).

The term EC50 denotes the concentration giving half of the maximal effect.

The test system of the experiment is Vero. As to the kind of experiment: Compound was evaluated for inhibition of HSV-1 induced plaques in vero cells (African green monkey kidney cells). It is filed as functional, cell-based. Particulars: Chlorocebus sabaeus.

On to `Nc1nc2c(ncn2COCCO)c(=O)[nH]1` [ACYCLOVIR], for which it took 6 µM to reach a half-maximal effect (EC50).
